# Source: patent US7141676B1, “Water soluble multi-biotin-containing compounds” (University of Washington, priority 1996, dated 2006)
# How the values were obtained:
# [1] = Water solubility (dissolve in water, stand about 24 hours, centrifuge, HPLC of aqueous layer); assay type: physicochemical; details: pH 7, water, thermodynamic from solid, neutral pH and ambient temperature
# Text: The solubility of biotin moieties in aqueous media is enhanced according to the present invention by attaching a water-soluble linker moiety, typically through the carboxylate group of the biotin. Water-soluble linker moieties, L, according to the present invention, compromise any linker moiety that, when conjugated or coupled (e.g., covalently bonded) to a biotin moiety and the cross-linker, C, increases the water solubility of the biotin-containing compound. […] Dissolving the compound in water, stirring the solution, and allowing the solution to stand at room temperature for about 24 hours determines solubility. The solution then is centrifuged and the resultant aqueous layer analyzed using high performance liquid chromatography (“HPLC”). The HPLC analysis is conducted with a gradient using acetonitrile or methanol and water as the solvent mixture on a reversed-phase column.
# [2] = neutral pH and ambient temperature; cited from earlier work
# [3] = molecular target: T1, streptavidin (Streptomyces avidinii, UniProt P22629); test: Streptavidin cross-linking with biotin compounds on streptavidin coated polystyrene plate using 125I labeled streptavidin (Example 7); assay type: binding; details: 100 pmol biotin compound, 25 pmol 125I streptavidin per well, up to 4 alternating additions
# T1 construct: purchased Pierce
# Text: This experiment was designed to test streptavidin cross-linking with biotin monomer, biotin dimers comprising water-soluble linkers, and biotin moiety trimers comprising water-soluble linkers. Each of the biotin dimers and trimers used experimentally was water-soluble. […] The biotin dimers used herein are structures 28, 29, and 30. The trimers used herein are structures 23 (page 26), 24 (page 26), and 31. The biotin monomer used herein is the N-[13-(p-iodobenzamido)4,7,10-trioxatridacanyl]biotinamide.
# A Reacti-Bind Streptavidin Coated Polystyrene Strip Place (Pierce) was washed with 100 mM PBS prior to use. To lane one (12-wells) was added 100 μL PBS. To lanes 2–7 were added 100 pmol of biotin dimer or biotin trimer to be tested in 100 μL PBS. Lane 8 was treated in the same manner with 100 pmol of biotin monomer. The plate then was incubated at 37° C. with shaking for 10 minutes. All the wells then were emptied and rinsed with 100 μL PBS. The PBS was removed and 25 pmol of ^125I labeled streptavidin (specific activity of 1 μCi/ug) in 100 μL PBS was added to each well. […]
# The first 9 wells in each lane were then filled with 100 μL PBS and the remaining 3 wells in each lane were filled with 100 μL of their respective dimer or trimer. […] The amount of activity remaining in each well was determined as a percentage of the highest initial streptavidin binding.
# T1 sequence (P22629 25-183, species assumed): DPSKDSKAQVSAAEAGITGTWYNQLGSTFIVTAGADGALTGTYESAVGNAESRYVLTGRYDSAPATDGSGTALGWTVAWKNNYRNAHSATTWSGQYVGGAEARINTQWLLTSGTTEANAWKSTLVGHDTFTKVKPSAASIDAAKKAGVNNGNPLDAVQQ
Compound,solubility [1] [µg/mL],also measured
O=C(CCCCC1SCC2NC(=O)NC21)NCCOCCONC(=O)CCCCC1SCC2NC(=O)NC21 (centres unmarked) [structure 28],> 200,–
O=C(O)CCCC[C@@H]1SC[C@@H]2NC(=O)N[C@@H]21 [biotin],–,solubility in water [2]: approximately 0.2 mg/mL
"O=C(CCCC[C@@H]1SC[C@@H]2NC(=O)N[C@@H]21)NCCCOCCOCCOCCCNC(=O)c1ccc(I)cc1 [biotin monomer, N-[13-(p-iodobenzamido)4,7,10-trioxatridacanyl]biotinamide]",–,streptavidin binding as a function of sequential biotin compound additions (FIG. 1) [3]: Neither the biotin monomer nor any of the biotin dimers tested demonstrated appreciable increases in streptavidin binding
O=C(CCCCC1SCC2NC(=O)NC21)NCCCOCCOCCOCCNC(=O)c1cc(C(=O)NCCOCCOCCNC(=O)CCCCC2SCC3NC(=O)NC32)cc(C(=O)NCCOCCOCCNC(=O)CCCCC2SCC3NC(=O)NC32)c1 (centres unmarked) [structure 24],> 200,–
O=C(CCCCC1SCC2NC(=O)NC21)NCCCOCCOCCOCCCNC(=O)c1cc(C(=O)NCCCOCCOCCOCCCNC(=O)CCCCC2SCC3NC(=O)NC32)cc(C(=O)NCCCOCCOCCOCCCNC(=O)CCCCC2SCC3NC(=O)NC32)c1 (centres unmarked) [structure 23],> 200,–
CC(CC(=O)NCCCOCCOCCOCCCNC(=O)c1cc(C(=O)NCCCOCCOCCOCCCNC(=O)CC(C)NC(=O)CCCCC2SCC3NC(=O)NC32)cc(C(=O)NCCCOCCOCCOCCCNC(=O)CC(C)NC(=O)CCCCC2SCC3NC(=O)NC32)c1)NC(=O)CCCCC1SCC2NC(=O)NC21 (centres unmarked) [structure 31],> 200,–
CC(CC(=O)NCCCOCCOCCOCCCNC(=O)CC(C)NC(=O)CCCCC1SCC2NC(=O)NC21)NC(=O)CCCCC1SCC2NC(=O)NC21 (centres unmarked) [structure 30],> 200,–
O=C(CCCCC1SCC2NC(=O)NC21)NCCCOCCOCCOCCCNC(=O)CCCCC1SCC2NC(=O)NC21 (centres unmarked) [structure 29],> 200,–
